This passage reports IC50 results from patent publication US20120094964A1, “SULFAMOYL BENZOIC ACID DERIVATIVES AS TRPM8 ANTAGONISTS” (priority 2009, published 2012).

For orientation: IC50 means the point on the concentration scale where inhibition reaches its midpoint. Read a low IC50 as greater potency.

In this test the target is T1, human TRPM8 (Homo sapiens, UniProt Q7Z2W7).
T1 construct: expressed in transfected cells
Kind of test: In Vitro human TRPM8 Functional Assay (intracellular Ca2+, Fluo4, FDSS, menthol activation). The class given is cell-based. To be noted: HEK293 cells stably expressing human TRPM8; activation with L-(-)-Menthol; 11-point dose-response. A digest of the protocol: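 Fluo4-loaded HEK293 cells stably expressing TRPM8 were preincubated with compound for 5 min at room temperature, then stimulated with L-menthol (20 μl of 90 μM stock) while fluorescence was read. IC50 values come from 11-point curves fitted to the mean of duplicate wells.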

T1 sequence (Q7Z2W7 whole entry): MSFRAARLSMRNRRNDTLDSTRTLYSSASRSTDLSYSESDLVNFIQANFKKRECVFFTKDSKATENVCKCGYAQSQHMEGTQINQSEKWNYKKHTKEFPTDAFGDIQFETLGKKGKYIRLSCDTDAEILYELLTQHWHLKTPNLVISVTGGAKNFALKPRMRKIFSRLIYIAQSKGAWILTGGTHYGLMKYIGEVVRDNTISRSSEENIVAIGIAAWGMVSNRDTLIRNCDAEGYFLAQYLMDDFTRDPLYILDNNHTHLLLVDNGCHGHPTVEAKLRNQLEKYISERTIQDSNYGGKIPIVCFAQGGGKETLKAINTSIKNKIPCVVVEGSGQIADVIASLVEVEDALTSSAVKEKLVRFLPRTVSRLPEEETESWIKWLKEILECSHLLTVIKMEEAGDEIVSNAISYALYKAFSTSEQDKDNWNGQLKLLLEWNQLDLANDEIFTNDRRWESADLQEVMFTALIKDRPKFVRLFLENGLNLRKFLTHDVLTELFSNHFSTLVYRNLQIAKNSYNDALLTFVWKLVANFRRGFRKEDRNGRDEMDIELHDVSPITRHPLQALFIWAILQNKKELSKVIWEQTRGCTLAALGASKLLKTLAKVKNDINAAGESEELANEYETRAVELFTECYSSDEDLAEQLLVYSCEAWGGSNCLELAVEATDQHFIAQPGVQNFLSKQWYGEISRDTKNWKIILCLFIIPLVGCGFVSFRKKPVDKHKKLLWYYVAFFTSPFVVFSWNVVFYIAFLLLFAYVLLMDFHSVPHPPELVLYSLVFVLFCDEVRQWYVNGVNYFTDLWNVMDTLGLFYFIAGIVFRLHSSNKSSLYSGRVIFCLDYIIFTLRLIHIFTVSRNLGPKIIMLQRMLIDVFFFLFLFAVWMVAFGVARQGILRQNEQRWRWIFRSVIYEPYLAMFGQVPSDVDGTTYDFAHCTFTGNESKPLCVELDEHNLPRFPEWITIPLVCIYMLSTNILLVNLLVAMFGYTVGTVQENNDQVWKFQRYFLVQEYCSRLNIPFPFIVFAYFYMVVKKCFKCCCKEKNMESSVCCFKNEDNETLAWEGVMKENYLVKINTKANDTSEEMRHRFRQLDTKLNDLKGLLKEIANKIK

In turn, `O=C(O)c1ccc(S(=O)(=O)N(Cc2csc(-c3ccccc3)n2)c2ncc(C(F)(F)F)cc2Cl)cc1` [Example 198, 4-(N-(3-Chloro-5-(trifluoromethyl)pyridin-2-yl)-N-((2-phenylthiazol-4-yl)methyl)sulfamoyl)benzoic acid] had an IC50 below 1 µM.
The result for `O=C(O)c1ccc(S(=O)(=O)N(Cc2noc(-c3ccccc3)n2)c2ncc(C(F)(F)F)cc2Cl)cc1` [Example 199, 4-(N-(3-Chloro-5-(trifluoromethyl)pyridin-2-yl)-N-((5-phenyl-1,2,4-oxadiazol-3-yl)methyl)sulfamoyl)benzoic acid] reads below 1 µM.
